The values that follow come from EPA's aquatic toxicity sets.

SMILES strings stand for the structures.

In this series the test system is Tetrahymena pyriformis. Nature of the series: 48 h IGC50 (-log10 mol/L); higher = more toxic.
As for `O=[N+]([O-])c1cc(C(F)(F)F)ccc1Cl`, the “48 h IGC50 (-log10 mol/L)” value was determined as 3.85.
The same measure for `CCCCCCCC(=O)OC`: 3.54; for `CCN(C)C`: 2.09; for `CCOc1ccc(O)cc1`: 3.01.
The same measure for `CCCC/C=C/C=O`: 4.05.
Take `CCOC(=O)C[C@H](O)CC#N`: the “48 h IGC50 (-log10 mol/L)” value was 1.36.
The same measure for `CCCCCCC(C)O` (stereo not given): 3.
Turning to `O=Cc1ccc2c(c1)Cc1ccccc1-2`, the “48 h IGC50 (-log10 mol/L)” value stood at 4.5.
The same measure for `COC(=O)c1ccc(C=O)cc1`: 3.3; for `CC1CC(=O)O1` (stereo not given): 2.24; for `N#CCCCc1ccccc1`: 3.15.
The same measure for `COc1cc(O)ccc1O`: 5.2; for `CCOC(=O)CC#N`: 1.77.
For the compound `O=Cc1ccc([N+](=O)[O-])s1`, the “48 h IGC50 (-log10 mol/L)” value is 4.98.
Consider `Nc1cc([N+](=O)[O-])cc(Cl)c1O`, for which the “48 h IGC50 (-log10 mol/L)” value was determined as 4.2.
Regarding `O=[N+]([O-])c1cc(Cl)ccc1Cl`, the “48 h IGC50 (-log10 mol/L)” value came out at 4.13.
The same measure for `CCCCCBr`: 3.48; for `Oc1cc(O)cc(O)c1`: 1.74.
Regarding `NC(=O)CI`, the “48 h IGC50 (-log10 mol/L)” value came to 4.85.
As for `N#C/C=C/c1ccccc1`, the “48 h IGC50 (-log10 mol/L)” value came out at 3.16.
For the compound `C=CS(=O)c1ccccc1` (stereo not given), the “48 h IGC50 (-log10 mol/L)” value amounted to 3.16.
For `CCC(=O)OC(C)(C)C`, the “48 h IGC50 (-log10 mol/L)” value came to 2.59.
Take `O=[N+]([O-])c1ccc(F)c(F)c1F`: the “48 h IGC50 (-log10 mol/L)” value came out at 4.89.
On to `O=Cc1cc(Cl)cc(Cl)c1Cl`, for which the “48 h IGC50 (-log10 mol/L)” value amounted to 4.72.
In the case of `COc1ccc(C(=O)c2ccccc2)c(O)c1`, the “48 h IGC50 (-log10 mol/L)” value is 4.42.
For the compound `Oc1c(Cl)c(Cl)c(O)c(Cl)c1Cl`, the “48 h IGC50 (-log10 mol/L)” value was found to be 5.11.
On to `O=Cc1cccc(O)c1O`, for which the “48 h IGC50 (-log10 mol/L)” value turned out to be 3.11.
The same measure for `c1ccnnc1`: 1.59; for `Fc1ccccn1`: 1.8; for `O=C1CCC(=O)CC1`: 1.33.
The same measure for `CC(O)CBr` (stereo not given): 1.81; for `CCC(Cl)C(N)=O` (stereo not given): 1.78.
Take `O=C(CBr)c1ccsc1`: the “48 h IGC50 (-log10 mol/L)” value turned out to be 5.22.
The same measure for `O=[N+]([O-])c1cc(Cl)ccc1O`: 5.12; for `CC(C)c1ccc(N)cc1`: 3.22; for `Fc1cc(F)c(F)nc1F`: 2.39.
With `COC(=O)c1ccc(C#N)cc1`, the “48 h IGC50 (-log10 mol/L)” value stood at 2.95.
As to `Nc1ccccc1I`, the “48 h IGC50 (-log10 mol/L)” value was determined as 3.35.
The same measure for `O=C(Oc1ccccc1)c1ccccc1`: 4.35; for `CCCCCC#CCCO`: 3.34.
The same measure for `C/C=C/C(=O)O`: 2.46.
For the compound `O=C1CCO1`, the “48 h IGC50 (-log10 mol/L)” value was 2.88.
The same measure for `CCCCS(=O)(=O)CCCC`: 2.74; for `CCCOC(=O)/C=C/c1ccccc1`: 4.23.
The same measure for `Cc1ccc(O)c([N+](=O)[O-])c1`: 3.57; for `O=C(O)c1cc(Br)ccc1Br`: 2.69; for `C/C=C/CCCO`: 2.25.
In the case of `CCCC#CCO`, the “48 h IGC50 (-log10 mol/L)” value was 2.62.
The same measure for `CCC/C=C/CO`: 2.53; for `C#CC(O)CCCC` (stereo not given): 2.73; for `CCCCC/C=C/CO`: 3.37.
Regarding `O=C1C=C(c2ccccc2)C(=O)C=C1c1ccccc1`, the “48 h IGC50 (-log10 mol/L)” value stood at 4.48.
For the compound `CCCCCCCCCCC#N`, the “48 h IGC50 (-log10 mol/L)” value stood at 4.65.
On to `CCC#CC(C)O` (stereo not given), for which the “48 h IGC50 (-log10 mol/L)” value is 3.51.
The same measure for `CC(C)(C)C(N)=O`: 1.52.
